The source of these data is ChEMBL document CHEMBL1800055, “Orally active MMP-1 sparing α-tetrahydropyranyl and α-piperidinyl sulfone matrix metalloproteinase (MMP) inhibitors with efficacy in cancer, arthritis, and cardiovascular disease” (J Med Chem, 2010).

Targets include Neutrophil collagenase (Homo sapiens, UniProt P22894); Stromelysin-1 (Homo sapiens, UniProt P08254); Collagenase 3 (Homo sapiens, UniProt P45452).
For another data set, the system named is Rattus norvegicus. The data set is described as follows: Plasma concentration in rat at 20 mg/kg, po. Further: time not given here. The arrangement: dose 20 mg/kg, route oral. Particulars: in vivo. Type of data set: ADME, organism-based.
Data set [1] is described as follows: Half life in rat at 20 mg/kg, po. The class given is ADME, organism-based. Details: dose 20 mg/kg, route oral. Particulars: in vivo.
The nature of data set [2]: Oral bioavailability in rat at 20 mg/kg. The class given is ADME, organism-based. The note with it: in vivo.
The next data set addresses T1, Interstitial collagenase (Homo sapiens, UniProt P03956).
T1 sequence (P03956 whole entry): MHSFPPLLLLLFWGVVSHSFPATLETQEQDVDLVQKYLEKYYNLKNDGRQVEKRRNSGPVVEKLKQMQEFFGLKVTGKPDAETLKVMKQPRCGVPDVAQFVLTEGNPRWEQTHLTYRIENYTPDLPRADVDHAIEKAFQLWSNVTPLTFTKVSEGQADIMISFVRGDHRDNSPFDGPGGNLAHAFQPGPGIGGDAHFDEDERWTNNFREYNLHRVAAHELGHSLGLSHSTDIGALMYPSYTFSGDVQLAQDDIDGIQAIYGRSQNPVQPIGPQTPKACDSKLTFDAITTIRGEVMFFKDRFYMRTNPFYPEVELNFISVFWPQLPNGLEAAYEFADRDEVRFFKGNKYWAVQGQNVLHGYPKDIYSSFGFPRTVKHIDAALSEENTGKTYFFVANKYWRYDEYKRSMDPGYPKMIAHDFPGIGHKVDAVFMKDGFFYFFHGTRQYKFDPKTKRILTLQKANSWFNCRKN
Type of data set: cell-based, HT-1080.

For data set [3], the target named is 72 kDa type IV collagenase (Homo sapiens, UniProt P08253).
Data set [4] can be described thus: Cmax in rat at 20 mg/kg, po. The arrangement: dose 20 mg/kg, route oral. The note with it: in vivo. Type of data set: ADME, organism-based.

Broadly, the IC50 is the concentration that inhibits the measured activity by half. A word on the half-life: it is the time needed for the level to fall by half in the phase considered. Read a high half-life as slow loss. In general, bioavailability refers to dose-corrected exposure relative to a reference, in per cent. Read a high bioavailability as much systemic uptake. The term Cmax denotes the highest concentration seen after dosing.

Chain of Neutrophil collagenase (P22894 whole entry): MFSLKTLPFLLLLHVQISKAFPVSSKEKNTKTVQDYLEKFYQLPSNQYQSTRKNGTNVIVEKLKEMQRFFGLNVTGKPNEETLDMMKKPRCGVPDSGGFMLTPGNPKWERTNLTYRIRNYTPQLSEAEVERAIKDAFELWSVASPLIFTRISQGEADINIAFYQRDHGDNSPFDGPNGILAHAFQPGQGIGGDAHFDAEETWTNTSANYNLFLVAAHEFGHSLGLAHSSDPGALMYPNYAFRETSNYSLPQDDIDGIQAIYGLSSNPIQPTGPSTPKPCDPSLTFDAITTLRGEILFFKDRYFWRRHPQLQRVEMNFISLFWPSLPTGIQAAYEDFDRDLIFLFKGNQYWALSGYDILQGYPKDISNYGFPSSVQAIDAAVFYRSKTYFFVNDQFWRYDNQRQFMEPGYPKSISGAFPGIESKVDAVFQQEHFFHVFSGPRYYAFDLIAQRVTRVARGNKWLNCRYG
Chain of 72 kDa type IV collagenase (P08253 whole entry): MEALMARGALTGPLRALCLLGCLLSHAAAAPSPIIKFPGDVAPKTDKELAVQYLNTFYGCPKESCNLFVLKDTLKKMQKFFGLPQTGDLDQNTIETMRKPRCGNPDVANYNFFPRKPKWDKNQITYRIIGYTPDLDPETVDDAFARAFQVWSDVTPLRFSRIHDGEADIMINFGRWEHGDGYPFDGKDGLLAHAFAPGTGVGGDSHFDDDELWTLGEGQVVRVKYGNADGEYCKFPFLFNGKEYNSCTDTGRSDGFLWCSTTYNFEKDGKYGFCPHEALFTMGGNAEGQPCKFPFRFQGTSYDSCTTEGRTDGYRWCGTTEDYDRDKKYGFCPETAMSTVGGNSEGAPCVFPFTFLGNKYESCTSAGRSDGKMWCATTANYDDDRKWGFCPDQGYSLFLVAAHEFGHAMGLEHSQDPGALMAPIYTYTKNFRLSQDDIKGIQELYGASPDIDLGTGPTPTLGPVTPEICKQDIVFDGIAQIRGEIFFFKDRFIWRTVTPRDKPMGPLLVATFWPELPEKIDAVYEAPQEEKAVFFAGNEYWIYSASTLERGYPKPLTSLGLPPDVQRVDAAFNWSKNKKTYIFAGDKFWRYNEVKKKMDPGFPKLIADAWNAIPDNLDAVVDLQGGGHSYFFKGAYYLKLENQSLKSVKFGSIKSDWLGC
Chain of Stromelysin-1 (P08254 whole entry): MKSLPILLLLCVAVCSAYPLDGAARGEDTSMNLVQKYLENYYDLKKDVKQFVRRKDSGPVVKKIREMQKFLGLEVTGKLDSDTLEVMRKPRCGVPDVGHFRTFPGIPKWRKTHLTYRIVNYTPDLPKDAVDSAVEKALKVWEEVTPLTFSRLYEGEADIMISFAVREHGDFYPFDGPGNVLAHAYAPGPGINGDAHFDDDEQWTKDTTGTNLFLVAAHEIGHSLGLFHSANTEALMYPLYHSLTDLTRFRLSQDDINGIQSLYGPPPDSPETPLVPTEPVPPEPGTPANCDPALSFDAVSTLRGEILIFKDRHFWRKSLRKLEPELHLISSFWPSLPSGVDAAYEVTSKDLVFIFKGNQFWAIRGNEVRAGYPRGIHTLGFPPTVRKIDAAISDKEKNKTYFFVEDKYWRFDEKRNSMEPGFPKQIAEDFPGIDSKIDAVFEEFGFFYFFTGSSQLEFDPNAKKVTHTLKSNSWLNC

Regarding `C#CCN1CCC(C(=O)NO)(S(=O)(=O)c2ccc(Oc3ccc(OC)cc3)cc2)CC1`, the IC50 against Neutrophil collagenase was determined as 10 nM; against Stromelysin-1, 0.2 nM. The Cp in the data set with Rattus norvegicus worked out at 192 ng/mL. In addition, in data set [1], the half-life is 1.01 h. This compound also registered a bioavailability in data set [2] of 36.9%.
In the case of `O=C(NO)C1(S(=O)(=O)c2ccc(Oc3ccc(-c4ccccc4)cc3)cc2)CCOCC1`, the IC50 on Neutrophil collagenase came to 2.4 nM; on Collagenase 3, 0.25 nM; against Interstitial collagenase, 1400 nM; at Stromelysin-1 it was 50 nM; in data set [3], 0.1 nM.
As for `COCCN1CCC(C(=O)NO)(S(=O)(=O)c2ccc(Oc3ccc(OC(C)C)cc3)cc2)CC1`, the 50% inhibitory concentration (IC50) against Collagenase 3 turned out to be 0.5 nM; against Interstitial collagenase, 2000 nM; in data set [3] it was 0.3 nM.
Take `CCOCCN1CCC(C(=O)NO)(S(=O)(=O)c2ccc(Oc3ccc(OC(F)(F)F)cc3)cc2)CC1`: the Cp in the data set with Rattus norvegicus is 3040 ng/mL. Moreover, the 50% inhibitory concentration (IC50) at Interstitial collagenase was 5900 nM. In [4], this compound returned a peak concentration (Cmax) of 3130 ng/mL. Moreover, the half-life in [1] is 1.66 h. In data set [2], this compound registered a bioavailability of 14.7%.
`COc1ccc(Oc2ccc(S(=O)(=O)C3(C(=O)NO)CCN(Cc4ccccn4)CC3)cc2)cc1`: the concentration for half-maximal inhibition (IC50) at Neutrophil collagenase was 1.9 nM; on Collagenase 3, 0.3 nM; at Interstitial collagenase it was 4500 nM; at Stromelysin-1 it was 20.6 nM; in [3], 0.2 nM. In the data set on Rattus norvegicus, this compound displayed a Cp of 160 ng/mL.
For the compound `CC(C)c1ccc(Oc2ccc(S(=O)(=O)C3(C(=O)NO)CCN(C(C)C)CC3)cc2)cc1`, the IC50 at Neutrophil collagenase is 1.8 nM; at Collagenase 3 it was 2.7 nM; against Interstitial collagenase, more than 10000 nM; against Stromelysin-1 it was 22.5 nM; in data set [3], 1 nM.
The compound `O=C(NO)C1(S(=O)(=O)c2ccc(Oc3ccc(OC(F)(F)F)cc3)cc2)CCN(CCO)CC1` displayed a Cp with Rattus norvegicus of 570 ng/mL. Moreover, the figures for the IC50 (on Collagenase 3; against Interstitial collagenase; in data set [3]) were less than 0.1 nM, 4500 nM and less than 0.1 nM, respectively. In data set [4], this compound came in with a Cmax of 1380 ng/mL. In data set [1], this compound showed a half-life of 1.39 h. The compound further displayed a bioavailability in data set [2] of 21.9%.
Consider `COCCN1CCC(C(=O)NO)(S(=O)(=O)c2ccc(Oc3ccc(C(C)C)cc3)cc2)CC1`, for which the 50% inhibitory concentration (IC50) at Collagenase 3 came to 0.2 nM; on Interstitial collagenase, 10000 nM; in data set [3], 0.1 nM.
For `CC(C)Oc1ccc(Oc2ccc(S(=O)(=O)C3(C(=O)NO)CCN(C4CC4)CC3)cc2)cc1` the same measures were 0.1 nM, 770 nM and 0.1 nM.
In the case of `CCN1CCC(C(=O)NO)(S(=O)(=O)c2ccc(Oc3ccc(C(F)(F)F)cc3)cc2)CC1`, the concentration for half-maximal inhibition (IC50) on Neutrophil collagenase is 1.4 nM; at Collagenase 3 it was 0.6 nM; on Interstitial collagenase it was more than 10000 nM; at Stromelysin-1, 36.9 nM; in data set [3], 0.2 nM.
For the compound `O=C(NO)C1(S(=O)(=O)c2ccc(Oc3ccc4c(c3)OCO4)cc2)CCNCC1`, the concentration for half-maximal inhibition (IC50) at Neutrophil collagenase is 2.4 nM; against Stromelysin-1 it was 35 nM. In the data set on Rattus norvegicus, the Cp stood at 128 ng/mL. The compound further yielded a peak concentration (Cmax) in data set [4] of 1550 ng/mL.
In the data set on Rattus norvegicus, `O=C(NO)C1(S(=O)(=O)c2ccc(Oc3ccc(C(F)(F)F)cc3)cc2)CCN(CCN2CCOCC2)CC1` showed a Cp of 73 ng/mL. The results for the 50% inhibitory concentration (IC50) (against Collagenase 3; in data set [3]) were 0.35 nM and 0.3 nM, respectively. Also, the peak level in [4] (Cmax) was 147 ng/mL. This compound showed a half-life in [1] of 0.94 h. Also, in data set [2], the bioavailability stood at 2.6%.
For the compound `C#CCN1CCC(C(=O)NO)(S(=O)(=O)c2ccc(Oc3ccc4c(c3)OCO4)cc2)CC1`, the 50% inhibitory concentration (IC50) was 1.3 nM against Neutrophil collagenase, 0.6 nM on Collagenase 3, 2000 nM on Interstitial collagenase and 18.1 nM at Stromelysin-1. In the data set on Rattus norvegicus, this compound showed a Cp of 134 ng/mL. In data set [1], this compound had a half-life of 0.843 h. The bioavailability in data set [2] is 30.1%.
Turning to `O=C(NO)C1(S(=O)(=O)c2ccc(Oc3ccc(Cl)c(Cl)c3)cc2)CCOCC1`, the figures for the IC50 against Neutrophil collagenase and against Stromelysin-1 were 4 nM and 35 nM, respectively.
